Experimental data as given in ChEMBL document CHEMBL1201862, “PubChem BioAssay data set” (2004).
Active and inactive are the calls of the source.

What was measured:
[1] = biological target: T1, Heat shock factor protein 1 (Mus musculus, UniProt P38532); experiment: enhancement of HSF1-driven luciferase signal – cell-based, NIH3T3, luminescence, dose retest, confirmation (AID 435004); assay type: functional;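 also: stress induced by proteasome inhibitor MG132 added 30 min after compound; luciferase reporter driven by HSF1 response element in NIH3T3 cells; actives raise luminescence as potentiators of the MG132 stress response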
T1 sequence (P38532 whole entry): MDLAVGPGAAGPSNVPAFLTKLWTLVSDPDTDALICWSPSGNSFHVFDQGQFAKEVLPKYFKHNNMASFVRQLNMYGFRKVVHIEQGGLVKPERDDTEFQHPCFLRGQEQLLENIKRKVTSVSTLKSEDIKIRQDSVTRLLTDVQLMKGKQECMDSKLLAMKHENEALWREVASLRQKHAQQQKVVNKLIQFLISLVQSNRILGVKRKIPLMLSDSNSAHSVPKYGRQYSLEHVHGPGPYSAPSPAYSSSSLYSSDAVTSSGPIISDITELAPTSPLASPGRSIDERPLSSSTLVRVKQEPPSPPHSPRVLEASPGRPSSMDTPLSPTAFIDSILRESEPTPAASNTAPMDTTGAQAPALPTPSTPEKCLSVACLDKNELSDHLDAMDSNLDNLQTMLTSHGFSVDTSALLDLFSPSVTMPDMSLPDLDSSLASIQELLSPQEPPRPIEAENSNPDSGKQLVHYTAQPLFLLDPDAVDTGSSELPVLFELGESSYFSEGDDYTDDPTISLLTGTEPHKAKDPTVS

[2] = reduction of Shn3 3'UTR-driven luciferase in osteoblasts – cell-based, Clone20 osteoblasts, firefly luciferase, cherry-picked, dose response (AID 624132); assay type: functional;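 also: firefly luciferase luminescence from reporter carrying the Shn3 3'UTR in osteoblasts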
[3] = loss of viability in HepG2 cells – cell-based, CellTiter-Glo, cherry-picked, cytotoxicity control for Shn3 inhibitor project, dose response (AID 624134); assay type: functional
[4] = non-specific 3'UTR reporter inhibition in Clone20-Shn3RL – cell-based, Renilla luciferase, cherry-picked, counter-screen for Shn3 inhibitor project, dose response (AID 624133); assay type: functional
[5] = Luminescence Cell-Based Dose Retest to Confirm Inhibitors of Cancer Stem Cells. [Related pubchem assays (depositor defined):AID2717, AID2721]; assay type: functional; conditions: Homo sapiens
INS1 = experiment: INS-1E survival protection against cytokine death – cell-based, luminescence, retest, dose response (AID 449756); assay type: functional; conditions: Rattus norvegicus;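 also: cell death triggered by IL-1 beta plus TNF-alpha plus IFN-gamma mixture; protective hits raise ATP signal compared with cytokine alone wells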
[6] = intracellular Trypanosoma cruzi inhibitors in host cells – cell-based, plate reader, cherry-pick samples, set 3, dose response (AID 651818); assay type: functional;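 also: compounds incubated with infected cells for about four days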
Aminopeptidase N = biological target: T2, Aminopeptidase N (Plasmodium falciparum FcB1/Columbia, UniProt O96935); experiment: malaria alanyl aminopeptidase activity blockers – biochemical, fluorogenic H-Leu-NHMec substrate, 1536-well (AID 1445); parameters: species or system Plasmodium falciparum 3D7, 3D7
T2 sequence (O96935 whole entry): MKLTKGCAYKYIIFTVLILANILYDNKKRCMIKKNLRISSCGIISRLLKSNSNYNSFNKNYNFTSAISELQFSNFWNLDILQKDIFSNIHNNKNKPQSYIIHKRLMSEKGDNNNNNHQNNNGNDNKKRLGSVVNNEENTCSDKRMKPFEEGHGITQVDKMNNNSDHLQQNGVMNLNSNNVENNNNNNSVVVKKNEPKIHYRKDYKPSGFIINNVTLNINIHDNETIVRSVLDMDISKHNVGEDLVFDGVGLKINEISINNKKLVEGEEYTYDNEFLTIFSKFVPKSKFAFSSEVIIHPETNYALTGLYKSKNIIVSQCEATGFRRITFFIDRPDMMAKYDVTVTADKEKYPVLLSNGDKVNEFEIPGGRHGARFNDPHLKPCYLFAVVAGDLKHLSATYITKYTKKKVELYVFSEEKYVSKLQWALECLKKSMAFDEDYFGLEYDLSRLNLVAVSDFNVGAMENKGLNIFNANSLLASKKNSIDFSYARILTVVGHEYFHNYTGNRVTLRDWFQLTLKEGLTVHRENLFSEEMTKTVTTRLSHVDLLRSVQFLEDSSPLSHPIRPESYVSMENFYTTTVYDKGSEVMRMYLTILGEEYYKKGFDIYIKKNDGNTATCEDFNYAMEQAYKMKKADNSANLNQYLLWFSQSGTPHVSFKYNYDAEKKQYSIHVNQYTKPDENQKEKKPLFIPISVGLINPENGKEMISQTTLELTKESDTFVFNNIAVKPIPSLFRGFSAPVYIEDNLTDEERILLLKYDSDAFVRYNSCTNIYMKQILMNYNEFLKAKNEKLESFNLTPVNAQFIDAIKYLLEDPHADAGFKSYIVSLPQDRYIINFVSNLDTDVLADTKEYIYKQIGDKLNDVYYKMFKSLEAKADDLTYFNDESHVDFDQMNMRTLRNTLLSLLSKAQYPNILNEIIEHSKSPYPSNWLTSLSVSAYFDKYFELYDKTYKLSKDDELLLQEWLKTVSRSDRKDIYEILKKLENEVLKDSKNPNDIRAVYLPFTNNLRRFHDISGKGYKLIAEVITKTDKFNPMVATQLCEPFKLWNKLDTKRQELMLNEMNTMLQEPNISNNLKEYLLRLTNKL

Paired box protein Pax-8 = Paired box protein Pax-8 (Homo sapiens, UniProt Q06710); experiment: PAX8 transcriptional activity inhibition in RMG-I – RMG-I cells, luciferase, cherry-pick, dose response (AID 687027); assay type: functional, cell-based;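 also: luciferase reporter driven by Pax8 target thyroperoxidase promoter measured by SteadyGlo luminescence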
Sequence of Paired box protein Pax-8 (Q06710 whole entry): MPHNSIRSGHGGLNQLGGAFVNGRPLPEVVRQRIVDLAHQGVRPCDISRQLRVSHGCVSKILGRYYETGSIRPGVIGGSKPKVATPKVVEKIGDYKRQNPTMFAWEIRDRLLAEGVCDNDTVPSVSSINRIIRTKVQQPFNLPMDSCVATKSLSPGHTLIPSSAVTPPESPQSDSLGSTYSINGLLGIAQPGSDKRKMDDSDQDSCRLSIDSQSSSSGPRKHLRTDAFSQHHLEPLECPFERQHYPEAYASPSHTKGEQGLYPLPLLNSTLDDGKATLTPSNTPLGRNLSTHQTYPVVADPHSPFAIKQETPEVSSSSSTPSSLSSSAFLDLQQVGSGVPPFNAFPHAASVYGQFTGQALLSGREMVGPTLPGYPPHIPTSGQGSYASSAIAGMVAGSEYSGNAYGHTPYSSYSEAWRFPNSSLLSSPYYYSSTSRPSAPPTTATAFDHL

[7] = OVCAR8 cell viability loss – plate reader, dry powder samples, PAX8 project, dose response (AID 743197); assay type: functional, cell-based; conditions: OVCAR-8
[8] = luciferase reporter signal suppression in cells – H4 neuroglioma cells, luminescence, dose response (AID 1990); assay type: functional, cell-based
[9] = Luminescence Cell-Based Dose Response HTS to Identify Inhibitors of 5'UTR Stem-Loop Driven Prion Protein mRNA Translation in H4 Neuroglioblastoma Cells. [Related pubchem assays: 1827 (Project Summary), 1813 (Primary HTS)]; assay type: functional
[10] = alpha-synuclein stem-loop luciferase translation blockers – H4 neuroglioma cells, luminescence, confirmation (AID 1988); assay type: functional, cell-based
[11] = Trypanosoma cruzi growth suppression in host cells – NIH3T3 host cells, beta-gal luminescence, confirmation (AID 2044); assay type: functional, cell-based;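 also: intracellular parasites grown in NIH/3T3 mouse fibroblasts as host cells; luminescent beta-galactosidase reporter signal from transgenic T. cruzi replicating inside host cells; inhibitors lower the luminescence signal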
[12] = HEK-293T viability loss after treatment – luminescence, T-cell screen hits, cytotoxicity control for TCR NF-kB inhibitor project, dose response (AID 489026); assay type: functional, cell-based;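 also: cells exposed to compound about 14 hours before the viability readout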
cells [13] = assay type: functional, cell-based
cells [14] = assay type: functional, cell-based; remark: listed apart in the source
[15] = biological target: T3, Replicative DNA helicase DnaB (Mycobacterium tuberculosis, UniProt P9WMR3); experiment: DnaB intein splicing inhibitors, dose response, biochemical, cell-free fluorescence (AID 449749); assay type: functional
T3 sequence (P9WMR3 whole entry): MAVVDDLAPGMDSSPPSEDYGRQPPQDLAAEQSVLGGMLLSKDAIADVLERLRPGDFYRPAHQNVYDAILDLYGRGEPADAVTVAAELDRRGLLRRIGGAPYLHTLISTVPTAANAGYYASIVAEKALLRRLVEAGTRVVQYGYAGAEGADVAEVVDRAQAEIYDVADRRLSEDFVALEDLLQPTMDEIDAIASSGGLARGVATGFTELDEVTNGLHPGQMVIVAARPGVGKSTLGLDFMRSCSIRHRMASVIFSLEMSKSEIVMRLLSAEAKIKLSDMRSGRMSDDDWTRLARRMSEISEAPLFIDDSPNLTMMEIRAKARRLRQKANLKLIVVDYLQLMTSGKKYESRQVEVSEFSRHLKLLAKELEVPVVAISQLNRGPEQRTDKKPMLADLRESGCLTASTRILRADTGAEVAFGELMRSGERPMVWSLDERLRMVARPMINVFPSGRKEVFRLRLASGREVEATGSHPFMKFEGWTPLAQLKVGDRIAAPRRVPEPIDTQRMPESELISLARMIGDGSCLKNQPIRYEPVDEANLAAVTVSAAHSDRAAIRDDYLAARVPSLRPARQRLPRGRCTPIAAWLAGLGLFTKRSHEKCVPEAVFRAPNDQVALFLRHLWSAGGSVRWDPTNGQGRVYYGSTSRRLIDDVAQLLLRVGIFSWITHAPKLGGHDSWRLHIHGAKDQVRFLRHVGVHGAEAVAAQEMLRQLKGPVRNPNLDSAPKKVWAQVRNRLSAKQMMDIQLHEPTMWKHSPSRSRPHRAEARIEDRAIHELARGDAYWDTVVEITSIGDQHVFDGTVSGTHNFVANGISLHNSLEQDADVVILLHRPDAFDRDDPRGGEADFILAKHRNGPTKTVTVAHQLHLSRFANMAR

Protein RecA = biological target: T4, Protein RecA (Mycobacterium tuberculosis, UniProt P9WHJ3); experiment: Fluorescence Cell-Free Homogeneous Dose Retest to Identify Inhibitors of RecA-Intein Splicing Activity. [Related pubchem assays (depositor defined):AID2097, AID2223, AID489010, AID492950]; assay type: functional
T4 sequence (P9WHJ3 whole entry): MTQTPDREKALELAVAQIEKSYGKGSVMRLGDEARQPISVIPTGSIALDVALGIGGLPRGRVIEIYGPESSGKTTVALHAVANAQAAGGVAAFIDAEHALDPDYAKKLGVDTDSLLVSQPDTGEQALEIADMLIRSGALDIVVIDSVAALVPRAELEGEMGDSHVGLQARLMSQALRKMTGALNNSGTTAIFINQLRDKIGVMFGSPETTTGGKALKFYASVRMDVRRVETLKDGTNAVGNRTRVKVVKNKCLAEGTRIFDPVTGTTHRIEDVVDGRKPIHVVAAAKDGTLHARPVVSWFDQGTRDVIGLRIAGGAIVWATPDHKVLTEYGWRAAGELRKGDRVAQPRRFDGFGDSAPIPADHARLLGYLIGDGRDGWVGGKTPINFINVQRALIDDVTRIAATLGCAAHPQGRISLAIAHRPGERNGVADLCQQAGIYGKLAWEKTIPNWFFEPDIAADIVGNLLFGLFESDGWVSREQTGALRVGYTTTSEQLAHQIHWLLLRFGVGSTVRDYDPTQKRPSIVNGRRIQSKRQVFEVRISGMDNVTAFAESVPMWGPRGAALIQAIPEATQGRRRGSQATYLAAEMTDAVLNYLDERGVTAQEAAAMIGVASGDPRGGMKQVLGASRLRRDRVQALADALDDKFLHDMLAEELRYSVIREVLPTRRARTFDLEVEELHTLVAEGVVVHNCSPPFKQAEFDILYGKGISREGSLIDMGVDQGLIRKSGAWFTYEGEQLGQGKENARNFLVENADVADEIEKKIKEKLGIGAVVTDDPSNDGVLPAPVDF

[16] = A549 cell cytotoxicity, dose response, cytotoxicity control, plate reader, cherry-pick, antagonist series (AID 743412); assay type: functional, cell-based

CCCCCn1c(N2CCN(c3cccc(Cl)c3)CC2)nc2c1c(=O)[nH]c(=O)n2C
EC50 [1]: > 260 µM (inactive) | AC50 [2]: 21.8 µM (active) | AC50 [3]: 59.4 µM (active) | AC50 [4]: 18.3 µM (active)

CC(C)(C)c1cc(C(=O)N/N=C/c2ccccc2O)n(-c2ccccc2)n1
AC50 [5]: 3.05 µM (active) | AC50 (INS1): 3.37 µM (active) | AC50 [2]: 2.25 µM (active) | AC50 [3]: 5.66 µM (active) | AC50 [4]: 2.18 µM (active)

C[C@@H]1CN([C@@H](C)CO)C(=O)Cc2cc(NC(=O)CCC(F)(F)F)ccc2O[C@@H]1CN(C)Cc1ccc(C(=O)Nc2ccccc2N)cc1
AC50 [6]: 2.67 µM (active)

O=S(=O)(c1ccc2c(c1)OCCO2)N1CCC(n2nnc3cc(F)ccc32)CC1
IC50 (Aminopeptidase N): 8.18 µM (active)

Cc1noc(C)c1S(=O)(=O)Nc1ccc2c(c1)C(=O)N([C@H](C)CO)C[C@H](C)[C@@H](CN(C)C(=O)Nc1ccc(C(F)(F)F)cc1)OCCCC[C@@H](C)O2
AC50 [6]: 1.19 µM (active)

C[C@@H]1CN([C@H](C)CO)C(=O)c2cc(NS(=O)(=O)c3ccccc3)ccc2O[C@@H](C)CCCCO[C@H]1CN(C)Cc1ccc(Cl)c(Cl)c1
AC50 (Paired box protein Pax-8): 9.93 µM (active) | AC50 [7]: 45 µM (active)

Cc1c(C(=O)OCC(C)C)[nH]c2c1C(=O)CC(c1cccs1)C2 (centres undefined)
EC50 [8]: 8.93 µM (inconclusive) | EC50 [9]: > 60 µM (not active) | EC50 [10]: 3.13 µM (active) | EC50 [11]: 4.91 µM (active) | IC50 [12]: > 80 µM (inactive)

C[C@@H]1CN([C@H](C)CO)C(=O)c2cccc(NC(=O)c3ccncc3)c2O[C@@H]1CN(C)Cc1ccc(-c2ccccc2)cc1
AC50 [6]: 4.37 µM (active)

O=C(O)c1cccc(S(=O)(=O)Nc2ccc([N+](=O)[O-])cc2O)c1
IC50 (Aminopeptidase N): 66.2 µM (active)

O=C(NN=Cc1c(O)ccc2ccccc12)c1ccc2c(c1)OCO2
IC50 [12]: > 80 µM (inactive)

COC(CN(C(=O)CCl)C(C(=O)NC1CCCCC1)c1ccc(Cl)cc1)OC (centres undefined)
EC50 (cells [13]): > 350 µM (not active) | EC50 (cells [14]): > 350 µM (not active) | AC50 [15]: 15.8 µM (active) | EC50 (Protein RecA): 1.81 µM (active)

C[C@@H]1CN([C@@H](C)CO)C(=O)c2cccc(NC(=O)C3CCCCC3)c2O[C@H]1CN(C)Cc1ccc(-c2ccccc2)cc1
AC50 [6]: 3.29 µM (active)

C[C@H]1CCCCO[C@H](CN(C)Cc2ccc(Cl)c(Cl)c2)[C@@H](C)CN([C@@H](C)CO)C(=O)c2cc(NC(=O)Nc3ccccc3)ccc2O1
AC50 (Paired box protein Pax-8): 13.1 µM (active) | AC50 [7]: > 70 µM (inactive)

CC[C@H](CO)Oc1cc(NCc2ccc(Cl)c(Cl)c2)c2ncn(C(C)C)c2c1
AC50 [16]: 30 µM (active)

C[C@@H]1CCCCO[C@@H](CN(C)Cc2ccc(C(F)(F)F)cc2)[C@@H](C)CN([C@@H](C)CO)C(=O)c2cc(NS(=O)(=O)c3ccccc3)ccc2O1
AC50 (Paired box protein Pax-8): 7.21 µM (active) | AC50 [7]: > 70 µM (inactive)

Nc1ccccc1Sc1ccc(C(=O)c2ccccc2C(=O)O)cc1[N+](=O)[O-]
IC50 (Aminopeptidase N): 98.9 µM (active)

COc1ccc(CNC(=O)C2CCN(S(=O)(=O)c3cc(OC)ccc3OC)CC2)cc1
IC50 (Aminopeptidase N): 99 µM (active)

C[C@H]1CN([C@@H](C)CO)C(=O)c2cccc(NC(=O)Nc3ccc(F)cc3)c2O[C@@H]1CN(C)Cc1ccc(C(=O)Nc2ccccc2N)cc1
AC50 [6]: 3.18 µM (active)

O=C(CNC(=O)c1ccccc1Br)N/N=C/c1cc(Br)ccc1O
IC50 (Aminopeptidase N): 26.6 µM (active) | EC50 (cells [13]): 34.7 µM (active) | EC50 (cells [14]): > 350 µM (not active)

C[C@@H]1CN([C@@H](C)CO)C(=O)c2cccc(NC(=O)c3cnccn3)c2O[C@@H]1CN(C)Cc1ccc(C(=O)Nc2ccccc2N)cc1
AC50 [6]: 2.35 µM (active)
